Tested on: adult patients with essential tremor
Assay: Example 16: video-reviewed TETRAS performance subscale and upper limb score; on TETRAS Performance Subscale Total Score by Video Review, Change from Baseline, Mean (SD): test concentration or dose not given here; on TETRAS Performance Subscale Total Score by Video Review, Change from Baseline, Median: test concentration or dose not given here; on TETRAS Performance Subscale Total Score by Video Review, Mean (SD): test concentration or dose not given here; on TETRAS Performance Subscale Total Score by Video Review, Median: test concentration or dose not given here
Type: in vivo, human
From the text: Video-reviewed TETRAS Analyses Video reviewed TETRAS assessments were generally consistent with those conducted at the clinic. Video reviewed TETRAS performance subscale total scores are summarized for Part A, the open-label titration phase of Part B, and the randomized withdrawal phase of Part B in Table 42, Table 43, and Table 44.
Video reviewed upper limb score values were generally consistent with those conducted at the clinic and are summarized for Part A, the open-label titration phase of Part B, and the randomized withdrawal phase of Part B in Table 45, Table 46, and Table 47, respectively.

[1] = Day 1, 6 hours Post - dose, Part A (N = 7)
[2] = Day 1, 6 hours Post - dose, Part B Open-Label Titration Phase (N = 17)
[3] = Day 1, 6 hours Post - dose, Part B, Formula (I) arm (N = 6)
[4] = Day 7, Part B Open-Label Titration Phase (N = 17)
[5] = Day 7, Part B, Formula (I) arm (N = 6)
[6] = Day 21, Part B Open-Label Titration Phase (N = 17)

SMILES: CC(C)(C)NC(=O)CN1CCC(CNC(=O)c2cc(F)cc(Cl)c2)CC1 [compound of formula (I), N-((1-(2-(tert-butylamino)-2-oxoethyl)piperidin-4-yl)methyl)-3-chloro-5-fluorobenzamide]
- TETRAS Performance Subscale Total Score by Video Review, Change from Baseline, Mean (SD) [1]: 0.29 (1.753)
- TETRAS Performance Subscale Total Score by Video Review, Change from Baseline, Median [1]: 0.50
- TETRAS Performance Subscale Total Score by Video Review, Mean (SD) [1]: 24.00 (5.148)
- TETRAS Performance Subscale Total Score by Video Review, Median [1]: 23.00
- TETRAS Performance Subscale Total Score by Video Review, Percentage Change from Baseline in Tremor Amplitude, Mean (SD) [1]: 1.98 (11.724) %
- TETRAS Performance Subscale Total Score by Video Review, Percentage Change from Baseline in Tremor Amplitude, Median [1]: 3.53%
- TETRAS Upper Limb Score by Video Review, Change from Baseline, Mean (SD) [1]: 0.21 (0.859)
- TETRAS Upper Limb Score by Video Review, Change from Baseline, Median [1]: 0.00
- TETRAS Upper Limb Score by Video Review, Mean (SD) [1]: 10.93 (2.440)
- TETRAS Upper Limb Score by Video Review, Median [1]: 10.00
- TETRAS Upper Limb Score by Video Review, Percentage Change from Baseline in Tremor Amplitude, Mean (SD) [1]: 3.57 (14.794) %
- TETRAS Upper Limb Score by Video Review, Percentage Change from Baseline in Tremor Amplitude, Median [1]: 0.00%
- TETRAS Performance Subscale Total Score by Video Review, Change from Baseline, Mean (SD) [2]: −0.74 (2.544)
- TETRAS Performance Subscale Total Score by Video Review, Change from Baseline, Median [2]: −0.50
- TETRAS Performance Subscale Total Score by Video Review, Mean (SD) [2]: 20.79 (6.715)
- TETRAS Performance Subscale Total Score by Video Review, Median [2]: 20.50
- TETRAS Performance Subscale Total Score by Video Review, Percentage Change from Baseline in Tremor Amplitude, Mean (SD) [2]: −4.49 (15.951) %
- TETRAS Performance Subscale Total Score by Video Review, Percentage Change from Baseline in Tremor Amplitude, Median [2]: −3.53%
- TETRAS Upper Limb Score by Video Review, Change from Baseline, Mean (SD) [2]: −0.29 (1.238)
- TETRAS Upper Limb Score by Video Review, Change from Baseline, Median [2]: 0.00
- TETRAS Upper Limb Score by Video Review, Mean (SD) [2]: 9.47 (2.809)
- TETRAS Upper Limb Score by Video Review, Median [2]: 9.50
- TETRAS Upper Limb Score by Video Review, Percentage Change from Baseline in Tremor Amplitude, Mean (SD) [2]: −4.23 (19.775) %
- TETRAS Upper Limb Score by Video Review, Percentage Change from Baseline in Tremor Amplitude, Median [2]: 0.00%
- TETRAS Performance Subscale Total Score by Video Review, Change from Baseline, Mean (SD) [3]: −0.42 (2.973)
- TETRAS Performance Subscale Total Score by Video Review, Change from Baseline, Median [3]: −0.50
- TETRAS Performance Subscale Total Score by Video Review, Mean (SD) [3]: 21.92 (4.398)
- TETRAS Performance Subscale Total Score by Video Review, Median [3]: 21.75
- TETRAS Performance Subscale Total Score by Video Review, Percentage Change from Baseline in Tremor Amplitude, Mean (SD) [3]: −2.29 (18.383) %
- TETRAS Performance Subscale Total Score by Video Review, Percentage Change from Baseline in Tremor Amplitude, Median [3]: −3.47%
- TETRAS Upper Limb Score by Video Review, Change from Baseline, Mean (SD) [3]: 0.33 (1.125)
- TETRAS Upper Limb Score by Video Review, Change from Baseline, Median [3]: 0.75
- TETRAS Upper Limb Score by Video Review, Mean (SD) [3]: 10.25 (1.666)
- TETRAS Upper Limb Score by Video Review, Median [3]: 9.50
- TETRAS Upper Limb Score by Video Review, Percentage Change from Baseline in Tremor Amplitude, Mean (SD) [3]: 5.82 (19.104) %
- TETRAS Upper Limb Score by Video Review, Percentage Change from Baseline in Tremor Amplitude, Median [3]: 13.30%
- TETRAS Performance Subscale Total Score by Video Review, Change from Baseline, Mean (SD) (Day 7, Part A (N = 7)): −1.25 (3.094)
- TETRAS Performance Subscale Total Score by Video Review, Change from Baseline, Median (Day 7, Part A (N = 7)): −1.25
- TETRAS Performance Subscale Total Score by Video Review, Mean (SD) (Day 7, Part A (N = 7)): 21.00 (2.449)
- TETRAS Performance Subscale Total Score by Video Review, Median (Day 7, Part A (N = 7)): 21.75
- TETRAS Performance Subscale Total Score by Video Review, Percentage Change from Baseline in Tremor Amplitude, Mean (SD) (Day 7, Part A (N = 7)): −7.45 (19.377) %
- TETRAS Performance Subscale Total Score by Video Review, Percentage Change from Baseline in Tremor Amplitude, Median (Day 7, Part A (N = 7)): −8.23%
- TETRAS Upper Limb Score by Video Review, Change from Baseline, Mean (SD) (Day 7, Part A (N = 7)): −0.25 (1.332)
- TETRAS Upper Limb Score by Video Review, Change from Baseline, Median (Day 7, Part A (N = 7)): 0.00
- TETRAS Upper Limb Score by Video Review, Mean (SD) (Day 7, Part A (N = 7)): 9.83 (0.816)
- TETRAS Upper Limb Score by Video Review, Median (Day 7, Part A (N = 7)): 10.00
- TETRAS Upper Limb Score by Video Review, Percentage Change from Baseline in Tremor Amplitude, Mean (SD) (Day 7, Part A (N = 7)): −3.79 (22.054) %
- TETRAS Upper Limb Score by Video Review, Percentage Change from Baseline in Tremor Amplitude, Median (Day 7, Part A (N = 7)): 0.00%
- TETRAS Performance Subscale Total Score by Video Review, Change from Baseline, Mean (SD) [4]: −2.28 (5.019)
- TETRAS Performance Subscale Total Score by Video Review, Change from Baseline, Median [4]: −3.50
- TETRAS Performance Subscale Total Score by Video Review, Mean (SD) [4]: 20.17 (6.595)
- TETRAS Performance Subscale Total Score by Video Review, Median [4]: 20.50
- TETRAS Performance Subscale Total Score by Video Review, Percentage Change from Baseline in Tremor Amplitude, Mean (SD) [4]: −13.83 (27.204) %
- TETRAS Performance Subscale Total Score by Video Review, Percentage Change from Baseline in Tremor Amplitude, Median [4]: −22.26%
- TETRAS Upper Limb Score by Video Review, Change from Baseline, Mean (SD) [4]: −1.15 (1.916)
- TETRAS Upper Limb Score by Video Review, Change from Baseline, Median [4]: −1.50
- TETRAS Upper Limb Score by Video Review, Mean (SD) [4]: 8.75 (2.880)
- TETRAS Upper Limb Score by Video Review, Median [4]: 8.50
- TETRAS Upper Limb Score by Video Review, Percentage Change from Baseline in Tremor Amplitude, Mean (SD) [4]: −17.86 (27.226) %
- TETRAS Upper Limb Score by Video Review, Percentage Change from Baseline in Tremor Amplitude, Median [4]: −25.01%
- TETRAS Performance Subscale Total Score by Video Review, Change from Baseline, Mean (SD) [5]: −2.00 (2.291)
- TETRAS Performance Subscale Total Score by Video Review, Change from Baseline, Median [5]: −1.50
- TETRAS Performance Subscale Total Score by Video Review, Mean (SD) [5]: 20.33 (2.754)
- TETRAS Performance Subscale Total Score by Video Review, Median [5]: 20.50
- TETRAS Performance Subscale Total Score by Video Review, Percentage Change from Baseline in Tremor Amplitude, Mean (SD) [5]: −12.63 (13.986) %
- TETRAS Performance Subscale Total Score by Video Review, Percentage Change from Baseline in Tremor Amplitude, Median [5]: −10.23%
- TETRAS Upper Limb Score by Video Review, Change from Baseline, Mean (SD) [5]: −0.88 (1.031)
- TETRAS Upper Limb Score by Video Review, Change from Baseline, Median [5]: −1.00
- TETRAS Upper Limb Score by Video Review, Mean (SD) [5]: 9.00 (0.913)
- TETRAS Upper Limb Score by Video Review, Median [5]: 9.00
- TETRAS Upper Limb Score by Video Review, Percentage Change from Baseline in Tremor Amplitude, Mean (SD) [5]: −14.41 (17.112) %
- TETRAS Upper Limb Score by Video Review, Percentage Change from Baseline in Tremor Amplitude, Median [5]: −17.46%
- TETRAS Performance Subscale Total Score by Video Review, Change from Baseline, Mean (SD) (Day 14, Part A (N = 7)): −2.92 (2.654)
- TETRAS Performance Subscale Total Score by Video Review, Change from Baseline, Median (Day 14, Part A (N = 7)): −3.00
- TETRAS Performance Subscale Total Score by Video Review, Mean (SD) (Day 14, Part A (N = 7)): 19.33 (2.380)
- TETRAS Performance Subscale Total Score by Video Review, Median (Day 14, Part A (N = 7)): 19.00
- TETRAS Performance Subscale Total Score by Video Review, Percentage Change from Baseline in Tremor Amplitude, Mean (SD) (Day 14, Part A (N = 7)): −17.69 (15.649) %
- TETRAS Performance Subscale Total Score by Video Review, Percentage Change from Baseline in Tremor Amplitude, Median (Day 14, Part A (N = 7)): −19.21%
- TETRAS Upper Limb Score by Video Review, Change from Baseline, Mean (SD) (Day 14, Part A (N = 7)): −1.33 (1.080)
- TETRAS Upper Limb Score by Video Review, Change from Baseline, Median (Day 14, Part A (N = 7)): −1.50
- TETRAS Upper Limb Score by Video Review, Mean (SD) (Day 14, Part A (N = 7)): 8.75 (1.294)
- TETRAS Upper Limb Score by Video Review, Median (Day 14, Part A (N = 7)): 9.25
- TETRAS Upper Limb Score by Video Review, Percentage Change from Baseline in Tremor Amplitude, Mean (SD) (Day 14, Part A (N = 7)): −21.27 (17.102) %
- TETRAS Upper Limb Score by Video Review, Percentage Change from Baseline in Tremor Amplitude, Median (Day 14, Part A (N = 7)): −24.67%
- TETRAS Performance Subscale Total Score by Video Review, Change from Baseline, Mean (SD) (Day 21, Part A (N = 7)): −1.00 (3.146)
- TETRAS Performance Subscale Total Score by Video Review, Change from Baseline, Median (Day 21, Part A (N = 7)): −0.75
- TETRAS Performance Subscale Total Score by Video Review, Mean (SD) (Day 21, Part A (N = 7)): 21.25 (2.734)
- TETRAS Performance Subscale Total Score by Video Review, Median (Day 21, Part A (N = 7)): 21.75
- TETRAS Performance Subscale Total Score by Video Review, Percentage Change from Baseline in Tremor Amplitude, Mean (SD) (Day 21, Part A (N = 7)): −5.84 (20.134) %
- TETRAS Performance Subscale Total Score by Video Review, Percentage Change from Baseline in Tremor Amplitude, Median (Day 21, Part A (N = 7)): −4.59%
- TETRAS Upper Limb Score by Video Review, Change from Baseline, Mean (SD) (Day 21, Part A (N = 7)): −0.67 (1.602)
- TETRAS Upper Limb Score by Video Review, Change from Baseline, Median (Day 21, Part A (N = 7)): −0.25
- TETRAS Upper Limb Score by Video Review, Mean (SD) (Day 21, Part A (N = 7)): 9.42 (1.320)
- TETRAS Upper Limb Score by Video Review, Median (Day 21, Part A (N = 7)): 9.50
- TETRAS Upper Limb Score by Video Review, Percentage Change from Baseline in Tremor Amplitude, Mean (SD) (Day 21, Part A (N = 7)): −9.56 (25.141) %
- TETRAS Upper Limb Score by Video Review, Percentage Change from Baseline in Tremor Amplitude, Median (Day 21, Part A (N = 7)): −4.16%
- TETRAS Performance Subscale Total Score by Video Review, Change from Baseline, Mean (SD) [6]: −0.96 (3.122)
- TETRAS Performance Subscale Total Score by Video Review, Change from Baseline, Median [6]: −1.00
- TETRAS Performance Subscale Total Score by Video Review, Mean (SD) [6]: 21.67 (5.809)
- TETRAS Performance Subscale Total Score by Video Review, Median [6]: 21.25
- TETRAS Performance Subscale Total Score by Video Review, Percentage Change from Baseline in Tremor Amplitude, Mean (SD) [6]: −5.66 (18.983) %
- TETRAS Performance Subscale Total Score by Video Review, Percentage Change from Baseline in Tremor Amplitude, Median [6]: −6.88%
- TETRAS Upper Limb Score by Video Review, Change from Baseline, Mean (SD) [6]: −0.67 (1.628)
- TETRAS Upper Limb Score by Video Review, Change from Baseline, Median [6]: −0.50
